From patent publication US7659071B2, “Methods and compositions relating to HPV-associated pre-cancerous and cancerous growths, including CIN” (Board of Regents, the University of Texas System, priority 2001, dated 2010)
Where “and” joins values, the source holds several entries; their conditions need not be identical. Equal values may be shown once.

What was measured:
PBMC [1] = experiment: T-cell proliferation assay ([3H]thymidine incorporation, stimulation index); format: cell-based, human
Protocol: The proliferative responses of PBMCs from different samples can be determined by the standard ^3[H]thymidine incorporation assay as described in published articles (Nehete, 1996; Nehete, 1995). The significance of T-cell proliferative responses to the individual E6 and E7 peptides (in terms of stimulation index [SI]) can be calculated as the fold increase of ^3[H]thymidine incorporation by cells exposed to the peptide over that by the control to which no peptide was added. An SI value of at least 2.0, including at least about 2.1, 2.2, 2.3, 2.4, 2.5, 2.6, 2.7, 2.8, 2.9, 3.0, 3.1, 3.2, 3.3, 3.4, 3.5, 3.6, 3.7, 3.8, 3.9, 4.0 or more, which are considered positive responses. Generally, an SI value is calculated by measuring the amount of radioactivity (cpm) in media from cells incubated with the peptide(s) and dividing by the amount of radioactivity in media from cells not incubated with peptide(s) (media alone).
Heparinized blood was collected from the study participants by venipuncture. PBMCs were isolated by centrifugation on a Ficoll-Hypaque density gradient ([…]; Sigma Chemical Co., St. Louis, Mo.). The proliferative responses of PBMC from different individuals after stimulation with PHA, c-mos peptide, or individual E6 and E7 peptides (Table 4) were determined using the [^3H]thymidine incorporation assay as previously described Nehete et al., 1996). Briefly, each sample was seeded in triplicate in 96-well microtiter plates and incubated for 7 days at 37° C. in a humidified 5% CO2 atmosphere. During the final 16-18 h, 1 μCi of ^3[H]thymidine (6.7 Ci/mmol; ICN Biomedicals, Inc., Costa Mesa, Calif.) was added. The cells were harvested onto filter strips to estimate ^3[H]thymidine incorporation. The specific radioactivity of cells treated with various additions was calculated in each case by subtracting the counts per minute (cpm) values obtained with cells cultured in medium alone. […] The significance of T-cell proliferative responses to the individual E6 and E7 peptides (in terms of stimulation index [SI]) was calculated as the fold increase of [^3H]thymidine incorporation by cells exposed to the peptide over that by the control to which no peptide was added. An SI value ≧3.0, which was considered a positive response, was used for all statistical analyses to determine the significance of proliferative responses and the association with disease-free or disease-recurrence status.

PBMC [2] = experiment: Cytokine analysis of PBMC culture supernatants (Cytoscreen immunoassay kits); format: cell-based, human; details: 48 h; for IL-4 production, number of patients positive/number tested: positive = above kit sensitivity 2.0 pg/ml; for IL-10 production, number of patients positive/number tested: positive = above kit sensitivity 5.0 pg/ml; for EL-12 production, number of patients positive/number tested: positive = above kit sensitivity IL-12 = 1.0 pg/ml; for IFN-γ production, number of patients positive/number tested: positive = above kit sensitivity 4.0 pg/ml; for EL-2 production, number of patients positive/number tested: positive = above kit sensitivity IL-2 = 8.7 pg/ml
Protocol: Cryopreserved PBMC were used for these assays. The PBMC (1×10^5) were incubated with various HPV peptides in RPMI-1640 medium (containing 10% fetal calf serum) in triplicate wells of 96-well round-bottom plates for 48 h at 37° C. Supernatants (100 μl) were removed from each well after centrifugation and stored frozen at −70° C. in another 96-well plate. The plates were then thawed and the supernatants assayed for various cytokines (IFN-γ, IL-2, IL-4, IL-10, and IL-12) using the Cytoscreen immunoassay kits (Biosource International, Camarillo, Calif.) according to the manufacturer's instructions.

“QAEPDRAHYNIVTFCCKCD (listed as Human papillomavirus) [Q19D, E7 peptide from HPV-16, aa 44-62]” was tested, and the “level of proliferative responses compared with the other peptides” value (“level … compared with the other peptides” for short) (PBMC [1]) was “higher levels of proliferative responses”, the “Proliferative Response No (SI < 3.0) to specific peptide, number (%) of women” value (“Proliferative Response No … (%) of women” for short) (PBMC [1]; Group 3 (disease-free), n = 22) was 9 (41%) and the “Proliferative Response No … (%) of women” value (PBMC [1]; Group 4 (recurrence), n = 10) was 10 (100%). The “IL-4 production, number of patients positive/number tested” value (PBMC [2]; Group 3 (n = 8)) was “none and 0/8”, the “IL-10 production, number of patients positive/number tested” value (PBMC [2]; Group 3 (n = 8)) was 3 and 3/8 and the “EL-12 production, number of patients positive/number tested” value (PBMC [2]; Group 3 (n = 8)) was 6 of 8 and 6/8. The “IL-4 production, number of patients positive/number tested” value (PBMC [2]; Group 4 (n = 6)) was 1 of the 6 and 1/6, the “IFN-γ production, number of patients positive/number tested” value (PBMC [2]; Group 4 (n = 6)) was 0/6 and the “IL-10 production, number of patients positive/number tested” value (PBMC [2]; Group 4 (n = 6)) was 6 of 6 and 6/6. For the same sequence, the “EL-2 production, number of patients positive/number tested” value (PBMC [2]; Group 4 (n = 6)) was 0/6 and the “EL-12 production, number of patients positive/number tested” value (PBMC [2]; Group 4 (n = 6)) was 1/6.

In the case of “RAHYNIVTF (listed as Human papillomavirus) [R9F, E7 peptide from HPV-16, aa 49-57]”, the “level … compared with the other peptides” value (PBMC [1]) is reported as “higher levels of proliferative responses” and the “Proliferative Response No … (%) of women” value (PBMC [1]; Group 3 (disease-free), n = 22) is reported as 12 (54%).

With “STRTPEDSNSLGT (Murine) [c-mos peptide, peptide from the c-mos protooncogene, aa 158-170, used as a negative control, reference compound]” the “stimulation index (SI), proliferative response” value (PBMC [1]; women in the four study groups) was < 2.0.

With “VYDFAFRDLC (listed as Human papillomavirus) [V10C, E6 peptide from HPV-16, aa 49-58]” the “level … compared with the other peptides” value (PBMC [1]) was “higher levels of proliferative responses”, the “Proliferative Response No … (%) of women” value (PBMC [1]; Group 3 (disease-free), n = 22) was 11 (50%) and the “Proliferative Response No … (%) of women” value (PBMC [1]; Group 4 (recurrence), n = 10) was 10 (100%).

“QLLRREVYDFAFRDL (listed as Human papillomavirus) [Q15L, E6 peptide from HPV-16, aa 43-57]” was tested, and the “level … compared with the other peptides” value (PBMC [1]) was “higher levels of proliferative responses”, the “Proliferative Response No … (%) of women” value (PBMC [1]; Group 3 (disease-free), n = 22) was 11 (50%) and the “Proliferative Response No … (%) of women” value (PBMC [1]; Group 4 (recurrence), n = 10) was 10 (100%). For the same sequence, the “IL-4 production, number of patients positive/number tested” value (PBMC [2]; Group 3 (n = 8)) was “none and 0/8”, the “IL-10 production, number of patients positive/number tested” value (PBMC [2]; Group 3 (n = 8)) was 3 and 3/8 and the “EL-12 production, number of patients positive/number tested” value (PBMC [2]; Group 3 (n = 8)) was 3 of 8 and 3/8. For the same sequence, the “IL-4 production, number of patients positive/number tested” value (PBMC [2]; Group 4 (n = 6)) was 1 of the 6 and 1/6, the “IFN-γ production, number of patients positive/number tested” value (PBMC [2]; Group 4 (n = 6)) was 0/6 and the “IL-10 production, number of patients positive/number tested” value (PBMC [2]; Group 4 (n = 6)) was 5 of 6 and 5/6. For the same sequence, the “EL-2 production, number of patients positive/number tested” value (PBMC [2]; Group 4 (n = 6)) was 0/6 and the “EL-12 production, number of patients positive/number tested” value (PBMC [2]; Group 4 (n = 6)) was 0/6.
